Source: publication PMC3606118, “Salvianolic Acid A, a Novel Matrix Metalloproteinase-9 Inhibitor, Prevents Cardiac Remodeling in Spontaneously Hypertensive Rats” (PLoS ONE, 2013)

Assays:
MMP-9 CD = molecular target: T1, MMP-9 CD (Homo sapiens, UniProt P14780, DEL217-390); assay: MMP-9 inhibition assay (thiopeptolide, enzyme kinetic analysis); type: biochemical
T1 construct: corresponding to residues 107–216 and 391–444; made in house
T1 sequence (P14780 with tags, fused parts or gaps DEL217-390 limits assumed): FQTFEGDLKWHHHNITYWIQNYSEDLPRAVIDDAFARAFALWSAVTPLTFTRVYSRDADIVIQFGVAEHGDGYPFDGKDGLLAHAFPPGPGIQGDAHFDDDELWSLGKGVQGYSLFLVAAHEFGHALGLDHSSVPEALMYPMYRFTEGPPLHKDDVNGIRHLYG
Experimental: Phenolic acids at the indicated concentrations were incubated with the reaction mixtures contained MMP-9 CD (15 nmol/L) and 5,5′-dithiobis-(2-nitrobenzoic acid) (1 mmol/L) at 4°C for 30 min. The reaction was initiated by the addition of thiopeptolide (Ac-Pro-Leu-Gly-S-Leu-Leu-Gly-OEt). Hydrolysis of thiopeptolide was monitored at 412 nm using Benchmark Plus™ microplate spectrophotometer (Bio-Rad) at room temperature. Kinetic analysis of phenolic acids against MMP-9 CD was calculated using double reciprocal plots of 1/V versus 1/[thiopeptolide]. The slope of every double reciprocal plot is the Km ^app/Vmax of enzyme at different compound concentration. Secondary plot was drawn through Km ^app/Vmax versus compound concentration. Km ^app is apparent value of Km; Ki is inhibition constant; Ki was calculated using the equation Ki = [Km/Vmax][compound]/(Km ^app/Vmax –Km/Vmax).

[1] = test system: H9c2 cells overexpressing MMP-9 (pDEST-MMP9); assay: Transwell migration of H9c2 cells overexpressing MMP-9; type: cell-based, Rat; conditions: pDEST-MMP9 untreated 157.4±10.2, pDEST 74.6±8.9
Experimental: Transwell assay was employed to evaluate effects of SalA on neonatal cardiac fibroblast migration induced by MMP-9 CD. Twenty thousand cells in 200 µL culture medium containing various concentrations of SalA were loaded onto PET track-etched membrane in modified Boyden chambers (BD Falcon Cell Culture Insert, BD), and same medium containing MMP-9 CD (200 nmol/L) was added to the lower side of the migration chamber. After incubating for 24 h, migrated cells (in the lower side of migration chamber) were stained with 0.1% crystal violet and counted with a microscope at 200 X magnification. Five to six view fields were counted on each membrane. Migration is expressed as the mean value of total number of migrated cells per field. DNA cloning using Gateway technology was carried out according to manufacturer’s instructions. Full-length MMP-9 cDNA (MGC-12688) was first subcloned into entry vector pDONR^TM221, followed by recombination reaction between the attL-containing pDONR^TM221 vector and attR-containing destination pDEST vector (Invitrogen, Carlsbad, CA, USA). […] Stable H9c2 cell line was generated by selection with 2 mg/mL G418 (denoted as pDEST-MMP9) and maintained in 0.75 mg/mL G418, and expression of MMP-9 was evaluated using zymography assay. […]

MMP-9 = molecular target: T2, MMP-9 (Rattus norvegicus, UniProt P50282); assay: In-gel gelatin zymography of SHR heart, MMP-9; type: in vivo, SHR rats; conditions: SalA i.p. everyday for 4 weeks
T2 construct: twenty µg protein from tissue; from tissue; host or cells: heart of spontaneously hypertensive rats (SHR)
Experimental: The enzymatic activities of H9c2 cells or tissue samples were detected by in-gel gelatin zymography. In brief, twenty µg protein from tissue or twenty microliter culture supernatant of H9c2 cells with different treatments was electrophoresed in 10% SDS-PAGE containing 1% gelatin as MMP substrate under non-reducing conditions. After electrophoresis, the gel was washed in 1% Triton X-100 for 1 h, rinsed in water, and incubated overnight in substrate buffer containing 50 mmol/L Tris-HCl, 5 mmol/L CaCl2, and 150 mmol/L NaCl (pH 7.5) at 37°C with gentle shaking. Then, the gel was stained in 0.1% Coomassie Blue R-250 and destained using 10% methanol, 5% acetic acid solution. The gel was scanned using a MiniBis system (DNR Bio-Imaging Systems Ltd) and the detected protein species corresponding to the expected molecular weight of MMP-9 was visualized.
2-month old male SHR rats were given rodent chow containing 8% NaCl 4 weeks before SaA treatment to the end of the experiment. Rats were divided into four groups (20 per group) and were injected intraperitoneally with saline or SalA everyday at the indicated dose for 4 weeks. The four groups were named as SalA (0 mg/kg), SalA (2.5 mg/kg), SalA (5 mg/kg), SalA (10 mg/kg) basing on the dose of SalA, respectively.

MMP-2 = molecular target: T3, MMP-2 (Rattus norvegicus, UniProt P33436); assay: In-gel gelatin zymography of SHR heart, MMP-2; type: in vivo, SHR rats; conditions: SalA i.p. everyday for 4 weeks
T3 construct: twenty µg protein from tissue; from tissue; host or cells: heart of spontaneously hypertensive rats (SHR)
T3 sequence (P33436 110-662): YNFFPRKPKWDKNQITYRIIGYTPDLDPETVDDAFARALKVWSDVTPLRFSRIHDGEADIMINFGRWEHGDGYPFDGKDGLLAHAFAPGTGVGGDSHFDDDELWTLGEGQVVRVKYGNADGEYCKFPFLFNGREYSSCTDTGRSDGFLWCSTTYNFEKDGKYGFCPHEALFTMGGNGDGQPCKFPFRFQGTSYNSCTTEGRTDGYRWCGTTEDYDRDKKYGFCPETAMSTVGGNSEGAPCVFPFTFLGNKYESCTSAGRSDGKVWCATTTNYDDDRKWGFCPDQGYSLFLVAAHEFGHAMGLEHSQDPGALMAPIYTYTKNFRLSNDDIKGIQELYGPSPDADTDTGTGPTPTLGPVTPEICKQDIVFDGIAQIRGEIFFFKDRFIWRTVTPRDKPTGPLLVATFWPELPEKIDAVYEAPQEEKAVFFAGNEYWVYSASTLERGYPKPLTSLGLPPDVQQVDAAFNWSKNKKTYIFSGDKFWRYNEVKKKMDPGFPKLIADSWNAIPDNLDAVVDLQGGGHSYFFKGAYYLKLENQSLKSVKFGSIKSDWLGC

T2 sequence (P50282 108-708): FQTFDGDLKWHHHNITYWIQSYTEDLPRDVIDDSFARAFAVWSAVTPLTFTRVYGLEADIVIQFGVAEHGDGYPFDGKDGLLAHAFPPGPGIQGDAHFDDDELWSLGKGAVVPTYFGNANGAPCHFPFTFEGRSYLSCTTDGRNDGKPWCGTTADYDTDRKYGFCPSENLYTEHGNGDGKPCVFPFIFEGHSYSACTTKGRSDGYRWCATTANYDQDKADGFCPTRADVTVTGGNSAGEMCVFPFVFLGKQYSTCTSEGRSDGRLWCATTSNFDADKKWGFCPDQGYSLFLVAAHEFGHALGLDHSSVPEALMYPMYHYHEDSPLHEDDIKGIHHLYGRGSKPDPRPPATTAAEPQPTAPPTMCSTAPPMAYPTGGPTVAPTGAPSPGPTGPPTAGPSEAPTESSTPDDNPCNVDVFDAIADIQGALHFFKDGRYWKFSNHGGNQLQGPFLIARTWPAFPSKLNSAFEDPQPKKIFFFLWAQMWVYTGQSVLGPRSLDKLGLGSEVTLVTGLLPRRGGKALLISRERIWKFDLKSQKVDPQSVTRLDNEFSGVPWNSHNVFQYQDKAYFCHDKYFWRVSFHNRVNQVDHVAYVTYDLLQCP

## O=C(/C=C/c1ccc(O)c(O)c1/C=C/c1ccc(O)c(O)c1)O[C@H](Cc1ccc(O)c(O)c1)C(=O)O [SalA, salvianolic acid A]
MMP-9 CD; double reciprocal plots
  inhibition mode on MMP-9: competitively
MMP-9 CD; spectrophotometric enzyme kinetic assay, thiopeptolide substrate
  Ki: 5.74 ± 1.15 µM
[1]; 1 µmol/L SalA
  migrated cells: 84.4±17.0 cells per field
[1]; 10 µmol/L SalA
  migrated cells: 42.3±8.9 cells per field
MMP-9
  MMP-9 activity in heart of SHRs: inhibited by SalA significantly
MMP-2
  MMP-2 activity in heart of SHRs: no regulation
